Reference: article PMC6718324 (European journal of medicinal chemistry, 2019)

Key:
hCAR [1] = assay: hCAR nuclear translocation assay in HPH; format: cell-based, human; conditions: Ad-EYFP-hCAR-infected HPH, 1 μM, 8 h
hPXR = target: T1, hPXR (Homo sapiens, UniProt O75469); assay: HepG2 cell reporter assay, hPXR activation; format: cell-based; conditions: HepG2 cell reporter assays, 1 μM
T1 sequence (O75469 1-434): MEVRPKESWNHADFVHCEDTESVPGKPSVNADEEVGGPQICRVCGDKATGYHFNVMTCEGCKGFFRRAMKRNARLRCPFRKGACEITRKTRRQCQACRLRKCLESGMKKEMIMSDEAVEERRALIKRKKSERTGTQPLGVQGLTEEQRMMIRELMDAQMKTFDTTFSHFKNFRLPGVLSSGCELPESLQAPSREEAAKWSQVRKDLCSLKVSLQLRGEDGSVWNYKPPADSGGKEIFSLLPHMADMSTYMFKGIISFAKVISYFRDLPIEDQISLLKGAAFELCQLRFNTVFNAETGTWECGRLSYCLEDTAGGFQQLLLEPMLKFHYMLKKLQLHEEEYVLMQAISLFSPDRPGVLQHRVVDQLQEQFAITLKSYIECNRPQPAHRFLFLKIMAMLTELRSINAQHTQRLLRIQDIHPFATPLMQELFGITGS

SU-DHL-4 cells = assay: CHOP-mediated cytotoxicity in HPH/SU-DHL-4 co-culture; format: cell-based, human
hCAR [2] = assay: HepG2 cell reporter assay, hCAR activation; format: cell-based, human; conditions: 1 μM; normalized against CITCO
Stability = format: physicochemical

c1ccc2c(c1)CC(NCc1c(-c3ccc4ccccc4c3)nc3occn13)C2 [DL5016, N-((6-(Naphthalen-2-yl)imidazo[2,1-b]oxazol-5-yl)methyl)-2,3-dihydro-1H-inden-2-amine]
hCAR translocation from cytoplasm to nucleus (in words) (hCAR [1]): efficiently translocated into the nucleus
selectivity for hCAR over hPXR (in words) (hPXR): maintaining selectivity over hPXR
effect on CHOP-induced cytotoxicity in SU-DHL-4 cells (in words) (SU-DHL-4 cells; DL5016 1 μM with CHOP, 24 h): significantly enhanced CHOP-induced cytotoxicity
cytotoxicity of compound alone in co-cultured SU-DHL-4 cells (in words) (SU-DHL-4 cells; control experiment without CHOP): did not show cytotoxicity
hCAR activation in HepG2 cell reporter assay (in words) (hCAR [2]): significant improvement in hCAR activation over CITCO
stability (in words) (Stability): excellent stability
